The test deals with MV-4-11 cells. The test is described as follows: Gene expression microarray analysis (Affymetrix PrimeView) and GSEA. Set-up: RFU PODN (11730768_x_at) / Fold change /veh PODN (11730768_x_at) / RFU LINC00158 (11744669_a_at) / Fold change /veh LINC00158 (11744669_a_at) / RFU DUSP10 (11751237_a_at) / Fold change /veh DUSP10 (11751237_a_at) / RFU ID3 (11757404_x_at) / Fold change /veh ID3 (11757404_x_at) / RFU PLEKHG5 (11737974_s_at) / Fold change /veh PLEKHG5 (11737974_s_at) / RFU LRRC4B (11730491_at) / Fold change /veh LRRC4B (11730491_at) / RFU GIMAP4 (11747438_a_at) / Fold change /veh GIMAP4 (11747438_a_at) / RFU KRT8 (11758183_x_at) / Fold change /veh KRT8 (11758183_x_at) / RFU CNN1 (11734310_a_at) / Fold change /veh CNN1 (11734310_a_at) / RFU VPS37D (11726825_at) / Fold change /veh VPS37D (11726825_at) / RFU C10orf10 (11716522_x_at) / Fold change /veh C10orf10 (11716522_x_at) / RFU KIR2DL2 /// KIR2DL4 /// KIR2DL5A /// KIR2DL5B /// KIR2DS1 /// KIR2DS2 /// KIR2DS3 /// KIR2DS4 /// KIR3DL3 /// KIR3DL3 /// KIR3DS1 (11738374_at) / Fold change /veh KIR2DL2 /// KIR2DL4 /// KIR2DL5A /// KIR2DL5B /// KIR2DS1 /// KIR2DS2 /// KIR2DS3 /// KIR2DS4 /// KIR3DL3 /// KIR3DL3 /// KIR3DS1 (11738374_at) / RFU C1QL1 (11718748_at) / Fold change /veh C1QL1 (11718748_at) / RFU TMPRSS4 (11747572_a_at) / Fold change /veh TMPRSS4 (11747572_a_at) / RFU HAMP (11756126_x_at) / Fold change /veh HAMP (11756126_x_at) / RFU RNFT2 (11725882_a_at) / Fold change /veh RNFT2 (11725882_a_at) / RFU NR4A2 (11747474_a_at) / Fold change /veh NR4A2 (11747474_a_at) / RFU ABCC12 (11746883_a_at) / Fold change /veh ABCC12 (11746883_a_at) / RFU TMEM136 (11760407_x_at) / Fold change /veh TMEM136 (11760407_x_at) / RFU CLDN22 /// WWC2 (11732394_at) / Fold change /veh CLDN22 /// WWC2 (11732394_at) / RFU HLA-DPB1 (11760878_x_at) / Fold change /veh HLA-DPB1 (11760878_x_at) / RFU SPINT1 (11716480_a_at) / Fold change /veh SPINT1 (11716480_a_at) / RFU GAP43 (11754022_s_at) / Fold change /veh GAP43 (11754022_s_at) / RFU A4GNT (11735810_at) / Fold change /veh A4GNT (11735810_at) / RFU PRB3 (11715151_x_at) / Fold change /veh PRB3 (11715151_x_at) / RFU TUBB4B (11761932_at) / Fold change /veh TUBB4B (11761932_at) / RFU CAPN14 (11732068_a_at) / Fold change /veh CAPN14 (11732068_a_at) / RFU TMCC2 (11721928_a_at) / Fold change /veh TMCC2 (11721928_a_at) / RFU IRGQ (11745062_a_at) / Fold change /veh IRGQ (11745062_a_at) / RFU FAM174B (11720279_a_at) / Fold change /veh FAM174B (11720279_a_at) / RFU TMPRSS4 (11748680_a_at) / Fold change /veh TMPRSS4 (11748680_a_at) / RFU FAM212B (11763350_a_at) / Fold change /veh FAM212B (11763350_a_at) / RFU PLEKHG5 (11743358_a_at) / Fold change /veh PLEKHG5 (11743358_a_at) / RFU ZSCAN30 (11745921_a_at) / Fold change /veh ZSCAN30 (11745921_a_at) / RFU CMKLR1 (11741424_a_at) / Fold change /veh CMKLR1 (11741424_a_at) / RFU LOC101060620 /// MAPK8IP1 (11723275_at) / Fold change /veh LOC101060620 /// MAPK8IP1 (11723275_at) / RFU SPTSSB (11747773_x_at) / Fold change /veh SPTSSB (11747773_x_at) / RFU PRSS12 (11739890_at) / Fold change /veh PRSS12 (11739890_at) / RFU BIN1 (11741810_x_at) / Fold change /veh BIN1 (11741810_x_at) / RFU WNT11 (11732464_a_at) / Fold change /veh WNT11 (11732464_a_at) / RFU C10orf10 (11716521_a_at) / Fold change /veh C10orf10 (11716521_a_at) / RFU C5orf56 (11738089_at) / Fold change /veh C5orf56 (11738089_at) / RFU CYB561 (11721691_x_at) / Fold change /veh CYB561 (11721691_x_at) / RFU ANKRD19P (11752326_a_at) / Fold change /veh ANKRD19P (11752326_a_at) / RFU OR2T12 /// OR2T33 /// OR2T8 (11738714_s_at) / Fold change /veh OR2T12 /// OR2T33 /// OR2T8 (11738714_s_at) / RFU VCAN (11748164_a_at) / Fold change /veh VCAN (11748164_a_at) / RFU JSRP1 (11732532_at) / Fold change /veh JSRP1 (11732532_at) / RFU KRTAP10-11 (11738290_x_at) / Fold change /veh KRTAP10-11 (11738290_x_at) / RFU MYO3A (11730013_a_at) / Fold change /veh MYO3A (11730013_a_at) / RFU EBF3 (11725865_a_at) / Fold change /veh EBF3 (11725865_a_at) / RFU CAMK2N1 (11719241_x_at) / Fold change /veh CAMK2N1 (11719241_x_at) / RFU C5orf56 (11738088_a_at) / Fold change /veh C5orf56 (11738088_a_at) / RFU OLFML3 (11715873_a_at) / Fold change /veh OLFML3 (11715873_a_at) / RFU LOC100653217 /// NTM (11731650_a_at) / Fold change /veh LOC100653217 /// NTM (11731650_a_at) / RFU MAPK11 (11762145_a_at) / Fold change /veh MAPK11 (11762145_a_at) / RFU FIZ1 (11724087_x_at) / Fold change /veh FIZ1 (11724087_x_at) / RFU OASL (11726364_x_at) / Fold change /veh OASL (11726364_x_at) / RFU SOX15 (11748057_x_at) / Fold change /veh SOX15 (11748057_x_at) / RFU CD79A (11719716_a_at) / Fold change /veh CD79A (11719716_a_at) / RFU HIST1H1D (11736915_at) / Fold change /veh HIST1H1D (11736915_at) / RFU CASKIN2 (11723855_a_at) / Fold change /veh CASKIN2 (11723855_a_at) / RFU LOC730098 (11760151_x_at) / Fold change /veh LOC730098 (11760151_x_at) / RFU OR4N2 (11742367_at) / Fold change /veh OR4N2 (11742367_at) / RFU PRRT2 (11749266_a_at) / Fold change /veh PRRT2 (11749266_a_at) / RFU SNX32 (11753110_a_at) / Fold change /veh SNX32 (11753110_a_at) / RFU CDHR5 (11726645_a_at) / Fold change /veh CDHR5 (11726645_a_at) / RFU RCAN1 (11760418_a_at) / Fold change /veh RCAN1 (11760418_a_at) / RFU FAM167A (11723789_a_at) / Fold change /veh FAM167A (11723789_a_at) / RFU FAM26E (11764081_at) / Fold change /veh FAM26E (11764081_at) / RFU ISYNA1 (11749810_s_at) / Fold change /veh ISYNA1 (11749810_s_at) / RFU ACY1 (11761880_at) / Fold change /veh ACY1 (11761880_at) / RFU 11764098_at / Fold change /veh 11764098_at / RFU SAMD14 (11745864_x_at) / Fold change /veh SAMD14 (11745864_x_at) / RFU NPB (11741838_a_at) / Fold change /veh NPB (11741838_a_at) / RFU TMPRSS6 (11731388_a_at) / Fold change /veh TMPRSS6 (11731388_a_at) / RFU KRTAP10-2 (11738614_at) / Fold change /veh KRTAP10-2 (11738614_at) / RFU ARHGAP8 /// PRR5-ARHGAP8 (11727945_x_at) / Fold change /veh ARHGAP8 /// PRR5-ARHGAP8 (11727945_x_at) / RFU KRTAP5-7 /// NADSYN1 (11734609_at) / Fold change /veh KRTAP5-7 /// NADSYN1 (11734609_at) / RFU RASL12 (11751679_a_at) / Fold change /veh RASL12 (11751679_a_at) / RFU CDKN2B (11736163_a_at) / Fold change /veh CDKN2B (11736163_a_at) / RFU PRF1 (11729649_at) / Fold change /veh PRF1 (11729649_at) / RFU, ZNF638 /// ZNF638-IT1 / Fold change vs veh, ZNF638 /// ZNF638-IT1 / RFU, PANK3 / Fold change vs veh, PANK3 / RFU, SH3YL1 / Fold change vs veh, SH3YL1 / RFU, ZEB2 / Fold change vs veh, ZEB2 / RFU, NRIP1 / Fold change vs veh, NRIP1 / RFU, PTTG1IP / Fold change vs veh, PTTG1IP / RFU, CAPN2 / Fold change vs veh, CAPN2 / RFU, MED14 / Fold change vs veh, MED14 / RFU, SNORA58 / Fold change vs veh, SNORA58 / RFU, C1orf63 / Fold change vs veh, C1orf63 / RFU, LRRFIP1 / Fold change vs veh, LRRFIP1 / RFU, NDUFAF7 / Fold change vs veh, NDUFAF7 / RFU, SLC12A2 / Fold change vs veh, SLC12A2 / RFU, IBTK / Fold change vs veh, IBTK / RFU, ESF1 / Fold change vs veh, ESF1 / Fold change vs veh, TMEM50B / RFU, TAOK1 / Fold change vs veh, TAOK1 / RFU, ACBD3 / Fold change vs veh, ACBD3 / RFU, TMA16 / Fold change vs veh, TMA16 / RFU, RWDD3 / Fold change vs veh, RWDD3 / RFU, BCAT1 / Fold change vs veh, BCAT1 / RFU, EDEM3 / Fold change vs veh, EDEM3 / RFU, TMEM33 / Fold change vs veh, TMEM33 / RFU, WDR75 / Fold change vs veh, WDR75 / RFU, AHCTF1 / Fold change vs veh, AHCTF1 / RFU, TFRC / Fold change vs veh, TFRC / RFU, ZDHHC17 / Fold change vs veh, ZDHHC17 / RFU, NOM1 / Fold change vs veh, NOM1 / RFU, ARL8B / Fold change vs veh, ARL8B / RFU, ZBTB11 / Fold change vs veh, ZBTB11 / RFU, TAMM41 / Fold change vs veh, TAMM41 / RFU, KIAA1704 /// LOC100996395 / Fold change vs veh, KIAA1704 /// LOC100996395 / RFU, ING1 / Fold change vs veh, ING1 / RFU, TRMT61B / Fold change vs veh, TRMT61B / RFU, FUBP3 / Fold change vs veh, FUBP3 / RFU, TP53 / Fold change vs veh, TP53 / RFU, TNKS2 / Fold change vs veh, TNKS2 / RFU, ZFP14 / Fold change vs veh, ZFP14 / RFU, ACTR2 / Fold change vs veh, ACTR2 / RFU, PPP3R1 / Fold change vs veh, PPP3R1 / RFU, PIK3R1 / Fold change vs veh, PIK3R1 / RFU, HNRNPA1 / Fold change vs veh, HNRNPA1 / RFU, RNF170 / Fold change vs veh, RNF170 / RFU, ZNF28 / Fold change vs veh, ZNF28 / RFU, RNGTT / Fold change vs veh, RNGTT / RFU, OGT / Fold change vs veh, OGT / RFU, BRD1 / Fold change vs veh, BRD1 / RFU, MARS / Fold change vs veh, MARS / RFU, ZNF655 / Fold change vs veh, ZNF655 / RFU, FAHD1 / Fold change vs veh, FAHD1 / RFU, BDP1 / Fold change vs veh, BDP1 / RFU, LRRCC1 / Fold change vs veh, LRRCC1 / RFU, ARID1A / Fold change vs veh, ARID1A / RFU, ZNF146 / Fold change vs veh, ZNF146 / RFU, ZNF330 / Fold change vs veh, ZNF330 / RFU, GPN3 / Fold change vs veh, GPN3 / RFU, C9orf123 / Fold change vs veh, C9orf123 / RFU, N4BP2L2 / Fold change vs veh, N4BP2L2 / RFU, ARFIP1 / Fold change vs veh, ARFIP1 / RFU, FAM179B / Fold change vs veh, FAM179B / RFU, BCL10 / Fold change vs veh, BCL10 / RFU, UHRF1BP1L / Fold change vs veh, UHRF1BP1L / RFU, BET1 / Fold change vs veh, BET1 / RFU, CNOT2 / Fold change vs veh, CNOT2 / RFU, ZNF268 / Fold change vs veh, ZNF268 / Fold change vs veh, ZNF507 / RFU, DGCR2 / Fold change vs veh, DGCR2 / RFU, WDSUB1 / Fold change vs veh, WDSUB1 / Fold change vs veh, HSP90B1 /// MIR3652 / RFU, ADSS / Fold change vs veh, ADSS / RFU, GK / Fold change vs veh, GK / RFU, ZNF148 / Fold change vs veh, ZNF148 / RFU, TAF9 / Fold change vs veh, TAF9 / RFU, SLC1A5 / Fold change vs veh, SLC1A5 / RFU, SLMO2 / Fold change vs veh, SLMO2 / RFU, ABCC4 / Fold change vs veh, ABCC4 / RFU, LOC101060439 /// RAP1B / Fold change vs veh, LOC101060439 /// RAP1B / RFU, RFX7 / Fold change vs veh, RFX7 / RFU, GTPBP10 / Fold change vs veh, GTPBP10 / RFU, CNEP1R1 / Fold change vs veh, CNEP1R1 / RFU, BIVM-ERCC5 /// ERCC5 / Fold change vs veh, BIVM-ERCC5 /// ERCC5 / RFU, ILF3 / Fold change vs veh, ILF3 / RFU 11762660_at / Fold change /veh 11762660_at / RFU VCAN (11757783_s_at) / Fold change /veh VCAN (11757783_s_at) / RFU DDX43 (11728927_at) / Fold change /veh DDX43 (11728927_at) / RFU KRT8 (11758188_x_at) / Fold change /veh KRT8 (11758188_x_at) / RFU NKD1 (11759106_at) / Fold change /veh NKD1 (11759106_at) / RFU SRD5A1 (11742802_a_at) / Fold change /veh SRD5A1 (11742802_a_at) / RFU TPSAB1 /// TPSB2 (11721975_s_at) / Fold change /veh TPSAB1 /// TPSB2 (11721975_s_at) / RFU GSTM3 (11746129_a_at) / Fold change /veh GSTM3 (11746129_a_at) / RFU IL23R (11737362_x_at) / Fold change /veh IL23R (11737362_x_at) / RFU TMEM51 (11727254_a_at) / Fold change /veh TMEM51 (11727254_a_at) / RFU PIWIL2 (11732686_x_at) / Fold change /veh PIWIL2 (11732686_x_at) / RFU ORM1 (11744905_x_at) / Fold change /veh ORM1 (11744905_x_at) / RFU CCDC152 (11743942_at) / Fold change /veh CCDC152 (11743942_at) / RFU ECM1 (11717891_a_at) / Fold change /veh ECM1 (11717891_a_at) / RFU IL23R (11748794_a_at) / Fold change /veh IL23R (11748794_a_at) / RFU TNFAIP8L3 (11732012_x_at) / Fold change /veh TNFAIP8L3 (11732012_x_at) / RFU MBOAT4 (11741988_at) / Fold change /veh MBOAT4 (11741988_at) / RFU 11764193_at / Fold change /veh 11764193_at / RFU TMEM53 (11763286_at) / Fold change /veh TMEM53 (11763286_at) / RFU MAGEB2 (11727129_at) / Fold change /veh MAGEB2 (11727129_at) / RFU TMEM200A (11744735_a_at) / Fold change /veh TMEM200A (11744735_a_at) / RFU CCDC152 (11751479_a_at) / Fold change /veh CCDC152 (11751479_a_at) / RFU FAM211A (11726209_a_at) / Fold change /veh FAM211A (11726209_a_at) / RFU RGS16 (11746705_a_at) / Fold change /veh RGS16 (11746705_a_at) / RFU VCAN (11755009_s_at) / Fold change /veh VCAN (11755009_s_at) / RFU RHOB (11743442_s_at) / Fold change /veh RHOB (11743442_s_at) / RFU RGS16 (11720943_a_at) / Fold change /veh RGS16 (11720943_a_at) / RFU RGS16 (11720944_at) / Fold change /veh RGS16 (11720944_at) / RFU, VPS4B / Fold change vs veh, VPS4B / RFU, CREB1 / Fold change vs veh, CREB1 / RFU, DNAJC13 / Fold change vs veh, DNAJC13 / RFU, GNAQ / Fold change vs veh, GNAQ / RFU, CDK5R1 / Fold change vs veh, CDK5R1 / RFU, ZRANB3 / Fold change vs veh, ZRANB3 / RFU, CUL4A / Fold change vs veh, CUL4A / RFU, CCNY / Fold change vs veh, CCNY / RFU, UFL1 / Fold change vs veh, UFL1 / RFU, COG3 / Fold change vs veh, COG3 / RFU, DIAPH2 / Fold change vs veh, DIAPH2 / RFU, SKA2 / Fold change vs veh, SKA2 / RFU, AFF3 / Fold change vs veh, AFF3 / RFU, LMF1 / Fold change vs veh, LMF1 / RFU, IPO11 / Fold change vs veh, IPO11 / RFU, DFFB / Fold change vs veh, DFFB / RFU, FOXP1 / Fold change vs veh, FOXP1 / RFU, CARD8 / Fold change vs veh, CARD8 / RFU, STRN3 / Fold change vs veh, STRN3 / RFU, ADK / Fold change vs veh, ADK / RFU, RASSF2 / Fold change vs veh, RASSF2 / RFU, WIPF1 / Fold change vs veh, WIPF1 / RFU, LARP1B / Fold change vs veh, LARP1B / RFU, RASA1 / Fold change vs veh, RASA1 / RFU, RB1 / Fold change vs veh, RB1 / RFU, PPFIA1 / Fold change vs veh, PPFIA1 / RFU, MAT2A / Fold change vs veh, MAT2A / RFU, CCT5 / Fold change vs veh, CCT5 / RFU, WDR92 / Fold change vs veh, WDR92 / RFU, CUX1 / Fold change vs veh, CUX1 / RFU, TTC7A / Fold change vs veh, TTC7A / RFU, TMEM135 / Fold change vs veh, TMEM135 / RFU, DEPTOR / Fold change vs veh, DEPTOR / RFU, CPM / Fold change vs veh, CPM / RFU, DNAJB6 / Fold change vs veh, DNAJB6 / RFU, CACNA2D3 / Fold change vs veh, CACNA2D3 / RFU, DTX4 / Fold change vs veh, DTX4 / RFU, TFCP2 / Fold change vs veh, TFCP2 / RFU, GMCL1 /// GMCL1P1 / Fold change vs veh, GMCL1 /// GMCL1P1 / RFU, AEBP2 / Fold change vs veh, AEBP2 / RFU, SNHG1 /// SNORD22 /// SNORD25 /// SNORD26 /// SNORD27 /// SNORD28 /// SNORD29 /// SNORD31 / Fold change vs veh, SNHG1 /// SNORD22 /// SNORD25 /// SNORD26 /// SNORD27 /// SNORD28 /// SNORD29 /// SNORD31 / Fold change (Aza/veh), C12orf56 (ProbeSet 11735607_a_at) / Fold change (ACY-1035/veh), C12orf56 (ProbeSet 11735607_a_at) / Fold change (Aza/veh), FGFR1OP (ProbeSet 11751329_s_at) / Fold change (ACY-1035/veh), FGFR1OP (ProbeSet 11751329_s_at) / Fold change (Aza/veh), VPS36 (ProbeSet 11739960_a_at) / Fold change (ACY-1035/veh), VPS36 (ProbeSet 11739960_a_at) / RFU SYPL1 (11715823_x_at) / Fold change /veh SYPL1 (11715823_x_at) / RFU IGFBP7 (11715501_s_at) / Fold change /veh IGFBP7 (11715501_s_at) / RFU REEP3 (11722064_at) / Fold change /veh REEP3 (11722064_at) / RFU IGLL1 (11728026_x_at) / Fold change /veh IGLL1 (11728026_x_at): dose or concentration left out as unconfirmed. The following applies: MV-4-11 cells, 48 hours. It counts as cell-based, human.

On to `Nc1ccc(-c2cccs2)cc1NC(=O)c1ccc2c(c1)cc(C1CC1)n2CCN1CCOCC1` [ACY-1035], for which the “RFU CCDC152 (11743942_at)” value turned out to be 5.45 RFU.
